Values after ≈ are worked out from the molar mass of the structure shown. Positions of bridges follow the written chain, without caps; N, C: chain ends. Non-standard residues stand in square brackets, D forms with d. Residues, ends and D or L forms follow the SMILES beside them. Groups on a side chain read outwards from the residue. *: point of attachment. Palmitoyl(16-(5-tetrazolyl)) = O=C(CCCCCCCCCCCCCCCc1nnn[nH]1)*; Lys(CH2CO2H)2 = N[C@@H](CCCCN(CC(=O)O)CC(=O)O)C(=O)O; NTA = O=C(O)CN(CC(=O)O)CC(=O)*; hCys = N[C@@H](CCS)C(=O)O; Dap = NC[C@H](N)C(=O)O; AEEA = NCCOCCOCC(=O)O
How the values were obtained:
physchem = assay: physchem
Experimental: From a stock solution in vehicle, either H2O or 10 mM phosphate, containing 1 mg (as weighed) compound per ml, 8-11 aliquots are withdrawn and pH-adjusted individually with HCl/NaOH, to cover the whole pH range.

MC1 receptor = MC1 receptor (Homo sapiens, UniProt Q01726); assay: biochemical
Experimental: Assay (IV)—Melanocortin Receptor 1 (MC1) Binding Assay
The MC1 receptor binding assay was performed on BHK cell membranes stably expressing the MC1 receptor. The assay was performed in a total volume of 250 μl: 25 μl of ^125NDP-α-MSH (22 pM in final concentration), 25 μl of test compound/control and 200 μl of cell membrane (25 μg/ml). Test compounds were dissolved in DMSO. Radioactively labeled ligand, membranes and test compounds were diluted in buffer: 25 mM HEPES, pH 7.4, 0.1 mM CaCl2, 1 mM MgSO4, 1 mM EDTA, 0.1% HSA and 0.005% Tween™ 20. Alternatively, HSA may be substituted with ovalbumin. The samples were incubated at 30° C. for 90 min. in Costar round-bottom microtiter plates. Incubation was terminated by filtration on a Packard harvester filtermate. Rapid filtration through Packard Unifilter-96 GF/B filters pre-treated with polyetylenimine (PerkinElmer 6005277). The filters were washed with ice-cold 0.9% NaCl 8-10 times. The plates were air-dried at app. 55° C. for 30 min, and 50 μl Microscint 0 (Packard, cat. No. 6013616) was added to each well. The plates were counted in a Topcounter (1 min/well).
The data were analysed by non-linear regression analysis of binding curves, using the Windows™ program GraphPad™ Prism (GraphPad Software, USA).

Sequence of MC1 receptor (Q01726 whole entry): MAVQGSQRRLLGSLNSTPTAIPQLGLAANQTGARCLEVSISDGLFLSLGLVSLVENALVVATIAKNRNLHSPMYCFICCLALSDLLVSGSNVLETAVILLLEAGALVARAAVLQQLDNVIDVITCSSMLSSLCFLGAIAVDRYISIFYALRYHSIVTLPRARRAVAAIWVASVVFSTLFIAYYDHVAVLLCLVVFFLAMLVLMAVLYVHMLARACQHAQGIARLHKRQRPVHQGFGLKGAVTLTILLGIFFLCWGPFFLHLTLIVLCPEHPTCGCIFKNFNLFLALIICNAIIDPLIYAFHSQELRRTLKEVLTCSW

Structure (SMILES) | solubility (physchem; pH 3.8, Solubility Conc.) | solubility (physchem; pH 4.2, Solubility Conc.) | solubility (physchem; pH 4.6, Solubility Conc.) | solubility (physchem; pH 5.1, Solubility Conc.) | solubility (physchem; pH 6, Solubility Conc.) | solubility (physchem; pH 7.9, Solubility Conc.) | solubility (physchem; pH 8.1, Solubility Conc.) | solubility (physchem; pH 8.5, Solubility Conc.) | solubility (physchem; pH 8.9, Solubility Conc.) | Ki (MC1 receptor) | solubility (physchem; pH 5.3, Solubility Conc.) | solubility (physchem; pH 6.3, Solubility Conc.) | solubility (physchem; pH 6.6, Solubility Conc.) | solubility (physchem; pH 7.2, Solubility Conc.) | solubility (physchem; pH 7.4, Solubility Conc.) | solubility (physchem; pH 7.5, Solubility Conc.) | solubility (physchem; pH 7.7, Solubility Conc.)
CC(=O)N[C@H]1CSSC[C@@H](C(=O)N2CCC[C@H]2C(=O)N2CCC[C@H]2C(=O)N[C@@H](CCCCN)C(=O)N[C@@H](CCC(=O)O)C(=O)N[C@@H](CCCCN(CC(=O)O)CC(=O)O)C(=O)N[C@@H](CCCCNC(=O)COCCOCCNC(=O)CCCCCCCCCCCCCCCc2nnn[nH]2)C(N)=O)NC(=O)[C@H](Cc2c[nH]c3ccccc23)NC(=O)[C@H](CCCNC(=N)N)NC(=O)[C@@H](Cc2ccccc2)NC(=O)[C@H](Cc2c[nH]cn2)NC(=O)[C@H](CCC(=O)O)NC1=O [Example 63, Ac-c[Cys-Glu-His-D-Phe-Arg-Trp-Cys]-Pro-Pro-Lys-Glu-Lys(biscarboxymethyl)-Lys[(2-{2-[16-(tetrazol-5-yl)hexadecanoylamino]ethoxy}ethoxy)acetyl]-NH2] (Ac-CEH[dF]RWCPPKE[Lys(CH2CO2H)2]K([AEEA-Palmitoyl(16-(5-tetrazolyl))])-NH2; disulfide 1-7) | 33 µM (≈ 75.7 µg/mL) | 23 µM (≈ 52.8 µg/mL) | 28 µM (≈ 64.3 µg/mL) | 78 µM (≈ 179 µg/mL) | 484 µM (≈ 1110 µg/mL) | 451 µM (≈ 1030 µg/mL) | 417 µM (≈ 957 µg/mL) | 495 µM (≈ 1140 µg/mL) | 465 µM (≈ 1070 µg/mL) | > 10 µM |  |  |  |  |  |  | 
CC(=O)N[C@H]1CCCCNC(=O)CC[C@@H](C(=O)N2CCC[C@H]2C(=O)N2CCC[C@H]2C(=O)N[C@@H](CCCNC(=N)N)C(=O)N[C@@H](CC(=O)O)C(=O)N[C@@H](CCCCN(CC(=O)O)CC(=O)O)C(=O)N[C@@H](CCCCNC(=O)COCCOCCNC(=O)CCCCCCCCCCCCCCCc2nnn[nH]2)C(N)=O)NC(=O)[C@H](Cc2c[nH]c3ccccc23)NC(=O)[C@H](CCCNC(=N)N)NC(=O)[C@@H](Cc2ccccc2)NC(=O)[C@H](Cc2c[nH]cn2)NC1=O [Example 21, Ac-c[Lys-His-D-Phe-Arg-Trp-Glu]-Pro-Pro-Arg-Asp-Lys(biscarboxymethyl)-Lys[(2-{2-[16-(tetrazol-5-yl)hexadecanoylamino]ethoxy}ethoxy)acetyl]-NH2] (Ac-KH[dF]RWEPPRD[Lys(CH2CO2H)2]K([AEEA-Palmitoyl(16-(5-tetrazolyl))])-NH2; lactam 1-6) |  |  |  |  | 31 µM (≈ 68.7 µg/mL) | 366 µM (≈ 811 µg/mL) |  |  |  | > 10 µM | 38 µM (≈ 84.2 µg/mL) | 36 µM (≈ 79.7 µg/mL) | 47 µM (≈ 104 µg/mL) | 90 µM (≈ 199 µg/mL) | 175 µM (≈ 388 µg/mL) | 276 µM (≈ 611 µg/mL) | 360 µM (≈ 797 µg/mL)
CC(=O)N[C@H]1CCSSC[C@@H](C(=O)N2CCC[C@H]2C(=O)N2CCC[C@H]2C(=O)N[C@@H](CCCCN)C(=O)N[C@@H](CC(=O)O)C(=O)N[C@@H](CNC(=O)CN(CC(=O)O)CC(=O)O)C(=O)N[C@@H](CCCCNC(=O)COCCOCCNC(=O)CCCCCCCCCCCCCCCc2nnn[nH]2)C(=O)O)NC(=O)[C@H](Cc2c[nH]c3ccccc23)NC(=O)[C@H](CCCNC(=N)N)NC(=O)[C@@H](Cc2ccccc2)NC(=O)[C@H](Cc2c[nH]cn2)NC1=O [Example 4, Ac-c[homoCys-His-D-Phe-Arg-Trp-Cys]-Pro-Pro-Lys-Asp-Dap(BCMA)-Lys[(2-{2-[16-(tetrazol-5-yl)hexadecanoylamino]ethoxy}ethoxy)acetyl]-OH] (Ac-[hCys]H[dF]RWCPPKD[Dap](NTA)K([AEEA-Palmitoyl(16-(5-tetrazolyl))])-OH; disulfide 1-6) |  |  |  |  |  |  |  |  |  | > 10 µM |  |  |  |  |  |  | 
